Data taken from ChEMBL document CHEMBL1649265, “Antimicrobial susceptibilities of Mycoplasma genitalium strains examined by broth dilution and quantitative PCR” (2009).
Converted amounts (≈) assume the structure as drawn.

Tests used:
Assay type in all cases: functional
Settings in all cases: Mycoplasmoides genitalium
Mycoplasma genitalium [1] = test: Antibacterial activity against Mycoplasma genitalium by broth dilution method
Mycoplasma genitalium [2] = test: Antibacterial activity against Mycoplasma genitalium by quantitative TaqMan PCR method
Mycoplasma genitalium [3] = test: Antibacterial activity against Mycoplasma genitalium G37 by broth dilution method
Mycoplasma genitalium [4] = test: Antibacterial activity against Mycoplasma genitalium M30 by broth dilution method
Mycoplasma genitalium [5] = test: Antibacterial activity against Mycoplasma genitalium R32 by broth dilution method
Mycoplasma genitalium [6] = test: Antibacterial activity against Mycoplasma genitalium TW10-5G by broth dilution method
Mycoplasma genitalium [7] = test: Antibacterial activity against Mycoplasma genitalium TW10-6G by broth dilution method
Mycoplasma genitalium [8] = test: Antibacterial activity against Mycoplasma genitalium TW48-5G by broth dilution method
Mycoplasma genitalium [9] = test: Antibacterial activity against Mycoplasma genitalium UTMB-10G by broth dilution method
Mycoplasma genitalium [10] = test: Antibacterial activity against Mycoplasma genitalium M2282 by broth dilution method
Mycoplasma genitalium [11] = test: Antibacterial activity against Mycoplasma genitalium M2300 by broth dilution method
Mycoplasma genitalium [12] = test: Antibacterial activity against Mycoplasma genitalium M2321 by broth dilution method
Mycoplasma genitalium [13] = test: Antibacterial activity against Mycoplasma genitalium M2341 by broth dilution method
Mycoplasma genitalium [14] = test: Antibacterial activity against Mycoplasma genitalium M6257 by broth dilution method
Mycoplasma genitalium [15] = test: Antibacterial activity against Mycoplasma genitalium M6280 by broth dilution method
Mycoplasma genitalium [16] = test: Antibacterial activity against Mycoplasma genitalium M6285 by broth dilution method
Mycoplasma genitalium [17] = test: Antibacterial activity against Mycoplasma genitalium M6286 by broth dilution method
Mycoplasma genitalium [18] = test: Antibacterial activity against Mycoplasma genitalium M6328 by broth dilution method
Mycoplasma genitalium [19] = test: Antibacterial activity against Mycoplasma genitalium M6090 by broth dilution method
Mycoplasma genitalium [20] = test: Antibacterial activity against Mycoplasma genitalium M6151 by broth dilution method
Mycoplasma genitalium [21] = test: Antibacterial activity against Mycoplasma genitalium M6282 by broth dilution method
Mycoplasma genitalium [22] = test: Antibacterial activity against Mycoplasma genitalium M6283 by broth dilution method
Mycoplasma genitalium [23] = test: Antibacterial activity against Mycoplasma genitalium M6284 by broth dilution method
Mycoplasma genitalium [24] = test: Antibacterial activity against Mycoplasma genitalium M6287 by broth dilution method

Row | SMILES | MIC50 (Mycoplasma genitalium [2]) | MIC90 (Mycoplasma genitalium [2]) | MIC50 (Mycoplasma genitalium [1]; read-out: MIC50) | MIC90 (Mycoplasma genitalium [1]; read-out: MIC90) | MIC (Mycoplasma genitalium [3]; read-out: MIC) | MIC (Mycoplasma genitalium [4]; read-out: MIC) | MIC (Mycoplasma genitalium [5]; read-out: MIC) | MIC (Mycoplasma genitalium [6]; read-out: MIC) | MIC (Mycoplasma genitalium [7]; read-out: MIC) | MIC (Mycoplasma genitalium [8]; read-out: MIC) | MIC (Mycoplasma genitalium [9]; read-out: MIC) | MIC (Mycoplasma genitalium [10]) | MIC (Mycoplasma genitalium [11]) | MIC (Mycoplasma genitalium [12]) | MIC (Mycoplasma genitalium [13]) | MIC (Mycoplasma genitalium [14]) | MIC (Mycoplasma genitalium [15]) | MIC (Mycoplasma genitalium [16]) | MIC (Mycoplasma genitalium [17]) | MIC (Mycoplasma genitalium [18]) | other results
1 | CC[C@H]1OC(=O)[C@H](C)[C@@H](O[C@H]2C[C@@](C)(OC)[C@@H](O)[C@H](C)O2)[C@H](C)[C@@H](O[C@@H]2O[C@H](C)C[C@H](N(C)C)[C@H]2O)[C@](C)(O)C[C@@H](C)CN(C)[C@H](C)[C@@H](O)[C@]1(C)O [AZITHROMYCIN] | 0.004 µg/mL (≈ 0.00534 µM) | 0.008 µg/mL (≈ 0.0107 µM) | – | – | – | – | – | – | – | – | – | – | – | – | – | – | – | – | – | – | MIC50 (Mycoplasma genitalium [1]): 0.001 µg/mL (≈ 0.00134 µM); MIC90 (Mycoplasma genitalium [1]): 0.002 µg/mL (≈ 0.00267 µM); MIC (Mycoplasma genitalium [3]): 0.001 µg/mL (≈ 0.00134 µM); MIC (Mycoplasma genitalium [4]): 0.001 µg/mL (≈ 0.00134 µM); MIC (Mycoplasma genitalium [5]): 0.001 µg/mL (≈ 0.00134 µM); MIC (Mycoplasma genitalium [6]): 0.001 µg/mL (≈ 0.00134 µM); MIC (Mycoplasma genitalium [7]): 0.001 µg/mL (≈ 0.00134 µM); MIC (Mycoplasma genitalium [8]): 0.001 µg/mL (≈ 0.00134 µM); MIC (Mycoplasma genitalium [9]): 0.001 µg/mL (≈ 0.00134 µM)
2 | CCn1cc(C(=O)O)c(=O)c2cc(F)c(N3CCNCC3)cc21 [NORFLOXACIN] | ≥ 8 µg/mL | ≥ 8 µg/mL | 0.032 µg/mL (≈ 0.1 µM) | 0.064 µg/mL (≈ 0.2 µM) | 0.032 µg/mL (≈ 0.1 µM) | 0.032 µg/mL (≈ 0.1 µM) | 0.032 µg/mL (≈ 0.1 µM) | 0.032 µg/mL (≈ 0.1 µM) | 0.032 µg/mL (≈ 0.1 µM) | 0.032 µg/mL (≈ 0.1 µM) | 0.032 µg/mL (≈ 0.1 µM) | 0.001 µg/mL (≈ 0.00313 µM) | 0.001 µg/mL (≈ 0.00313 µM) | 0.001 µg/mL (≈ 0.00313 µM) | 0.001 µg/mL (≈ 0.00313 µM) | 0.001 µg/mL (≈ 0.00313 µM) | 0.001 µg/mL (≈ 0.00313 µM) | 0.001 µg/mL (≈ 0.00313 µM) | 0.001 µg/mL (≈ 0.00313 µM) | 0.001 µg/mL (≈ 0.00313 µM) | MIC (Mycoplasma genitalium [19]): 0.001 µg/mL (≈ 0.00313 µM); MIC (Mycoplasma genitalium [20]): 0.001 µg/mL (≈ 0.00313 µM); MIC (Mycoplasma genitalium [21]): 0.001 µg/mL (≈ 0.00313 µM); MIC (Mycoplasma genitalium [22]): 0.001 µg/mL (≈ 0.00313 µM); MIC (Mycoplasma genitalium [23]): 0.001 µg/mL (≈ 0.00313 µM); MIC (Mycoplasma genitalium [24]): 0.001 µg/mL (≈ 0.00313 µM)
3 | CC[C@H]1OC(=O)[C@H](C)[C@@H](O[C@H]2C[C@@](C)(OC)[C@@H](O)[C@H](C)O2)[C@H](C)[C@@H](O[C@@H]2O[C@H](C)C[C@H](N(C)C)[C@H]2O)[C@](C)(OC)C[C@@H](C)C(=O)[C@H](C)[C@@H](O)[C@]1(C)O [CLARITHROMYCIN] | 0.032 µg/mL (≈ 0.0428 µM) | 0.063 µg/mL (≈ 0.0842 µM) | – | – | – | – | – | – | – | – | – | – | – | – | – | – | – | – | – | – | MIC50 (Mycoplasma genitalium [1]): 0.004 µg/mL (≈ 0.00535 µM); MIC90 (Mycoplasma genitalium [1]): 0.008 µg/mL (≈ 0.0107 µM); MIC (Mycoplasma genitalium [3]): 0.002 µg/mL (≈ 0.00267 µM); MIC (Mycoplasma genitalium [4]): 0.002 µg/mL (≈ 0.00267 µM); MIC (Mycoplasma genitalium [5]): 0.002 µg/mL (≈ 0.00267 µM); MIC (Mycoplasma genitalium [6]): 0.002 µg/mL (≈ 0.00267 µM); MIC (Mycoplasma genitalium [7]): 0.002 µg/mL (≈ 0.00267 µM); MIC (Mycoplasma genitalium [8]): 0.002 µg/mL (≈ 0.00267 µM); MIC (Mycoplasma genitalium [9]): 0.002 µg/mL (≈ 0.00267 µM)

The remaining molecules from weak to strong by MIC50 (Mycoplasma genitalium [2]), led by results:

Row | MIC50 (Mycoplasma genitalium [2]) | MIC90 (Mycoplasma genitalium [2]) | MIC50 (Mycoplasma genitalium [1]; read-out: MIC50) | MIC90 (Mycoplasma genitalium [1]; read-out: MIC90) | MIC (Mycoplasma genitalium [3]; read-out: MIC) | MIC (Mycoplasma genitalium [4]; read-out: MIC) | MIC (Mycoplasma genitalium [5]; read-out: MIC) | MIC (Mycoplasma genitalium [6]; read-out: MIC) | MIC (Mycoplasma genitalium [7]; read-out: MIC) | MIC (Mycoplasma genitalium [8]; read-out: MIC) | MIC (Mycoplasma genitalium [9]; read-out: MIC) | MIC (Mycoplasma genitalium [10]) | MIC (Mycoplasma genitalium [11]) | MIC (Mycoplasma genitalium [12]) | MIC (Mycoplasma genitalium [13]) | MIC (Mycoplasma genitalium [14]) | MIC (Mycoplasma genitalium [15]) | MIC (Mycoplasma genitalium [16]) | MIC (Mycoplasma genitalium [17]) | MIC (Mycoplasma genitalium [18]) | SMILES | other results
4 | 1 µg/mL | 4 µg/mL | 1 µg/mL | 2 µg/mL | 1 µg/mL | 1 µg/mL | 1 µg/mL | 1 µg/mL | 1 µg/mL | 1 µg/mL | 1 µg/mL | 0.125 µg/mL | 0.125 µg/mL | 0.125 µg/mL | 0.125 µg/mL | 0.125 µg/mL | 0.125 µg/mL | 0.125 µg/mL | 0.125 µg/mL | 0.125 µg/mL | C[C@H]1COc2c(N3CCN(C)CC3)c(F)cc3c(=O)c(C(=O)O)cn1c23.C[C@H]1COc2c(N3CCN(C)CC3)c(F)cc3c(=O)c(C(=O)O)cn1c23.O [LEVOFLOXACIN] | MIC (Mycoplasma genitalium [19]): 0.125 µg/mL; MIC (Mycoplasma genitalium [20]): 0.125 µg/mL; MIC (Mycoplasma genitalium [21]): 0.125 µg/mL; MIC (Mycoplasma genitalium [22]): 0.125 µg/mL; MIC (Mycoplasma genitalium [23]): 0.125 µg/mL; MIC (Mycoplasma genitalium [24]): 0.125 µg/mL
5 | 0.5 µg/mL (≈ 1.33 µM) | 0.5 µg/mL (≈ 1.33 µM) | 0.25 µg/mL (≈ 0.666 µM) | 0.25 µg/mL (≈ 0.666 µM) | 0.125 µg/mL (≈ 0.333 µM) | 0.125 µg/mL (≈ 0.333 µM) | 0.125 µg/mL (≈ 0.333 µM) | 0.125 µg/mL (≈ 0.333 µM) | 0.125 µg/mL (≈ 0.333 µM) | 0.125 µg/mL (≈ 0.333 µM) | 0.125 µg/mL (≈ 0.333 µM) | 0.031 µg/mL (≈ 0.0826 µM) | 0.031 µg/mL (≈ 0.0826 µM) | 0.031 µg/mL (≈ 0.0826 µM) | 0.031 µg/mL (≈ 0.0826 µM) | 0.031 µg/mL (≈ 0.0826 µM) | 0.031 µg/mL (≈ 0.0826 µM) | 0.031 µg/mL (≈ 0.0826 µM) | 0.031 µg/mL (≈ 0.0826 µM) | 0.031 µg/mL (≈ 0.0826 µM) | COc1c(N2CCNC(C)C2)c(F)cc2c(=O)c(C(=O)O)cn(C3CC3)c12 (stereo not given) [GATIFLOXACIN] | MIC (Mycoplasma genitalium [19]): 0.031 µg/mL (≈ 0.0826 µM); MIC (Mycoplasma genitalium [20]): 0.031 µg/mL (≈ 0.0826 µM); MIC (Mycoplasma genitalium [21]): 0.031 µg/mL (≈ 0.0826 µM); MIC (Mycoplasma genitalium [22]): 0.031 µg/mL (≈ 0.0826 µM); MIC (Mycoplasma genitalium [23]): 0.031 µg/mL (≈ 0.0826 µM); MIC (Mycoplasma genitalium [24]): 0.031 µg/mL (≈ 0.0826 µM)
